Blank lines part the entries; values can stand above or below the compound they belong to.
Key:
[1] = system: Mino; conditions: in combination with Compound 292
Protocol: (§1) The method is described as follows. Cells are thawed from a liquid nitrogen preserved state. Once cells have been expanded and divide at their expected doubling times, screening begins. Cells are seeded in growth media in either black 1536-well or 384-well tissue culture treated plates. […] These Tzero (T0) plates are read using ultra-sensitive luminescence on Envision plate readers (Perkin Elmer). […] All data points are collected via automated processes, quality controlled and analyzed using Zalicus software.
(§2) I ranges from 0% (when T=V) to 100% (when T=0). […] The measure of effect in the experiment can be the inhibition of cellular response relative to the untreated level (vehicle alone). For untreated vehicle and treated levels V and T, a fractional inhibition 1=1−T/V is calculated. The inhibition ranges from 0% at the untreated level to 100% when T=0 Inhibition levels are negative for agents that actually increase levels. Other effect measures, such as an activity ratio r=T/V may be more appropriate for some assays. When activity ratios (e.g, fold increase over […] control) are being used, the effect can be measured using an induction I=1n(T/V). With this definition, all effect expressions are the same as for inhibition.
(§3) Growth Inhibition (GI) is used as a measure of cell viability. […] A GI reading of 100% represents complete growth inhibition-T72 compound-treated and T0 vehicle signals are matched. […] A GI reading of 200% represents complete death of all cells in the culture well. Compounds reaching an activity plateau of GI 200% are considered cytotoxic. GI is calculated by applying the following test and equation: […]
(§4) Combination analysis data were collected in a 6×6 dose matrix. Synergy is calculated by comparing a combination's response to those of its single compound, against the drug-with-itself dose-additive reference model. Deviations from dose additivity may be assessed visually on an isobologram or numerically with a Combination Index (CI). […] Additive effect is CI=1.0. […] Antagonistic effect is CI>1.0.
(§5) To measure combination effects in excess of Loewe additivity, a scalar measure to characterize the strength of synergistic interaction termed the Synergy Score is devised. The Synergy Score is calculated as: […]
(§6) The fractional inhibition for each component agent and combination point in the matrix is calculated relative to the median of all vehicle-treated control wells. The Synergy Score equation integrates the experimentally-observed activity volume at each point in the matrix in excess of a model surface numerically derived from the activity of the component agents using the Loewe model for additivity. Additional terms in the Synergy Score equation (above) are used to normalize for various dilution factors used for individual agents and to allow for comparison of synergy scores across an entire experiment. The inclusion of positive inhibition gating or an Idata multiplier removes noise near the zero effect level, and biases results for synergistic interactions at that occur at high activity levels.
(§7) Loewe Volume (Loewe Vol) is used to assess the overall magnitude of the combination interaction in excess of the Loewe additivity model. Loewe Volume is particularly useful when distinguishing synergistic increases in a phenotypic activity (positive Loewe Volume) versus synergistic antagonisms (negative Loewe Volume). […] This model defines additivity as a non-synergistic combination interaction where the combination dose matrix surface should be indistinguishable from either drug crossed with itself.

[2] = system: Farage; conditions: in combination with Compound 292
Protocol: as §1, §2, §3, §4, §5, §6, §7

[3] = system: HH; conditions: in combination with Compound 292
Protocol: as §1, §2, §3, §4, §5, §6, §7

[4] = system: TMD8; conditions: in combination with Compound 292
Protocol: as §1, §2, §3, §4, §5, §6, §7

[5] = system: OCI-LY3; conditions: in combination with Compound 292
Protocol: as §1, §2, §3, §4, §5, §6, §7

[6] = system: Jeko-1; conditions: in combination with Compound 292
Protocol: as §1, §2, §3, §4, §5, §6, §7

[7] = system: DOHH-2; conditions: in combination with Compound 292
Protocol: as §1, §2, §3, §4, §5, §6, §7

[8] = system: KARPAS-299; conditions: in combination with Compound 292
Protocol: as §1, §2, §3, §4, §5, §6, §7

[9] = system: SU-DHL-4-epst; conditions: in combination with Compound 292
Protocol: as §1, §2, §3, §4, §5, §6, §7

[10] = system: WSU-NHL; conditions: in combination with Compound 292
Protocol: as §1, §2, §3, §4, §5, §6, §7

[11] = system: HBL-1; conditions: in combination with Compound 292
Protocol: as §1, §2, §3, §4, §5, §6, §7

[12] = system: SU-DHL-10-epst; conditions: in combination with Compound 292
Protocol: as §1, §2, §3, §4, §5, §6, §7

[13] = system: OPM-2; conditions: in combination with Compound 292
Protocol: as §1, §2, §3, §4, §5, §6, §7

[14] = system: KARPAS-422; conditions: in combination with Compound 292
Protocol: as §1, §2, §3, §4, §5, §6, §7

[15] = system: OCI-Ly7; conditions: in combination with Compound 292
Protocol: as §1, §2, §3, §4, §5, §6, §7

[16] = system: U-2932; conditions: in combination with Compound 292
Protocol: as §1, §2, §3, §4, §5, §6, §7

[17] = system: GRANTA-519; conditions: in combination with Compound 292
Protocol: as §1, §2, §3, §4, §5, §6, §7

[18] = system: NCI-H929; conditions: in combination with Compound 292
Protocol: as §1, §2, §3, §4, §5, §6, §7

[19] = system: RPMI-8226; experiment: Combination with BTK inhibitor, 72 h ATPLite, 6x6 dose matrix (multiple myeloma); assay type: cell-based; conditions: in combination with Compound 292
Protocol: as §1, §2, §3, §4, §5
The fractional inhibition for each component agent and combination point in the matrix is calculated relative to the median of all vehicle-treated control wells. The Synergy Score equation integrates the experimentally-observed activity volume at each point in the matrix in excess of a model surface numerically derived from the activity of the component agents using the Loewe model for additivity. […]

[20] = system: RL; experiment: Combination with BTK inhibitor, 72 h ATPLite, 6x6 dose matrix (follicular lymphoma); assay type: cell-based; conditions: in combination with Compound 292
Protocol: as §1, §2, §3, §4, §5, §6, §7

[21] = molecular target: T1, PI3K α (Homo sapiens, UniProt P42336); experiment: PI3K lipid kinase inhibition assay (TLC or HTRF), PI3K α; assay type: biochemical; conditions: In Vitro
T1 construct: purchased Upstate
T1 sequence (P42336 whole entry): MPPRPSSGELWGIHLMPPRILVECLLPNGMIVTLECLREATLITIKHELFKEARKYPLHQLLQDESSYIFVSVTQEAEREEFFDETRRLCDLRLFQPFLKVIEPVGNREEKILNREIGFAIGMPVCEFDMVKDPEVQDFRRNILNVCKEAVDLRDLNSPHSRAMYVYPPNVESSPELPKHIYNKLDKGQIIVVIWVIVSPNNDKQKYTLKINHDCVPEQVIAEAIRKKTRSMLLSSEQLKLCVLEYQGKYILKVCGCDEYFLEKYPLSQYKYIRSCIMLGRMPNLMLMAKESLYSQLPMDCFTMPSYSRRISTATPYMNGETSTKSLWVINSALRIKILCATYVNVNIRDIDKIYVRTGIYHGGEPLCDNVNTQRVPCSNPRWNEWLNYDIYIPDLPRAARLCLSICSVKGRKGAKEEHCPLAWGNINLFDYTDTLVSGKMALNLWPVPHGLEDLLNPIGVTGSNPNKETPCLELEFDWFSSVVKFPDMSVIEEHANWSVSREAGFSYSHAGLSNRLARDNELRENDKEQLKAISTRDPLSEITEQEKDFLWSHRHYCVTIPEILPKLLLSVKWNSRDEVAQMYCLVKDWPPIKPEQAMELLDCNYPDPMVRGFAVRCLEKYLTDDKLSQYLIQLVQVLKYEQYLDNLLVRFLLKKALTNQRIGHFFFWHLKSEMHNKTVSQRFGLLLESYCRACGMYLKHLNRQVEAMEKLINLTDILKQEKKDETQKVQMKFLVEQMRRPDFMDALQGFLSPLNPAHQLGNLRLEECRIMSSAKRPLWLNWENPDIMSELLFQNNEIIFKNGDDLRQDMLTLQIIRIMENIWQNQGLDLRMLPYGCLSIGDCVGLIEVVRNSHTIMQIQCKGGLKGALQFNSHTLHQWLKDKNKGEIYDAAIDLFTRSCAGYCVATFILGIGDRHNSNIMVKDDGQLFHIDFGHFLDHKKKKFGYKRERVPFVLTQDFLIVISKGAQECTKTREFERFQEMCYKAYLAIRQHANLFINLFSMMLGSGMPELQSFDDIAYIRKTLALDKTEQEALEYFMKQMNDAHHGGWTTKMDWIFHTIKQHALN
T1 sequence (P27986 whole entry partner): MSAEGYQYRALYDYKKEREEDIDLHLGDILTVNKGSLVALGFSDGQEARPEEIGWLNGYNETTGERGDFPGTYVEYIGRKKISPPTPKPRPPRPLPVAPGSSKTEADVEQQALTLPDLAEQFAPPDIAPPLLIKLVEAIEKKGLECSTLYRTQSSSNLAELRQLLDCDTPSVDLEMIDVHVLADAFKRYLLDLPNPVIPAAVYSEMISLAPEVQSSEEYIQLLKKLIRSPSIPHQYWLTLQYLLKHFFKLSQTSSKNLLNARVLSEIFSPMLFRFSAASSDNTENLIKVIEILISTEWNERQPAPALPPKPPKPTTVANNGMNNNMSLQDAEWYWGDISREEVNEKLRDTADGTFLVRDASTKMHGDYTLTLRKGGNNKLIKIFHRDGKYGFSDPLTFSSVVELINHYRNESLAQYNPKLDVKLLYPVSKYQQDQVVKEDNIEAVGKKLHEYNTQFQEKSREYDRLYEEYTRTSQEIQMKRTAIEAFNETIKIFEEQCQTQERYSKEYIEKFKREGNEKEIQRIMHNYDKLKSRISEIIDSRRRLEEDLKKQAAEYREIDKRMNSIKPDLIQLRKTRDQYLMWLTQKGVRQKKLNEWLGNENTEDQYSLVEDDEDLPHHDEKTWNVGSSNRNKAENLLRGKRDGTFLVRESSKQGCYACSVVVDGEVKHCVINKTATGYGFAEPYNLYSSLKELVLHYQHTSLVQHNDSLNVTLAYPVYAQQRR
Excerpt: (§8) Other commercial kits or systems for assaying PI3K activities are available. […] An exemplary system is PI 3-Kinase (human) HTRF™ Assay from Upstate.

[22] = molecular target: T2, PI3K β (Homo sapiens, UniProt P42338); experiment: PI3K lipid kinase inhibition assay (TLC or HTRF), PI3K β; assay type: biochemical; conditions: In Vitro
T2 construct: purchased Upstate
T2 sequence (P42338 whole entry): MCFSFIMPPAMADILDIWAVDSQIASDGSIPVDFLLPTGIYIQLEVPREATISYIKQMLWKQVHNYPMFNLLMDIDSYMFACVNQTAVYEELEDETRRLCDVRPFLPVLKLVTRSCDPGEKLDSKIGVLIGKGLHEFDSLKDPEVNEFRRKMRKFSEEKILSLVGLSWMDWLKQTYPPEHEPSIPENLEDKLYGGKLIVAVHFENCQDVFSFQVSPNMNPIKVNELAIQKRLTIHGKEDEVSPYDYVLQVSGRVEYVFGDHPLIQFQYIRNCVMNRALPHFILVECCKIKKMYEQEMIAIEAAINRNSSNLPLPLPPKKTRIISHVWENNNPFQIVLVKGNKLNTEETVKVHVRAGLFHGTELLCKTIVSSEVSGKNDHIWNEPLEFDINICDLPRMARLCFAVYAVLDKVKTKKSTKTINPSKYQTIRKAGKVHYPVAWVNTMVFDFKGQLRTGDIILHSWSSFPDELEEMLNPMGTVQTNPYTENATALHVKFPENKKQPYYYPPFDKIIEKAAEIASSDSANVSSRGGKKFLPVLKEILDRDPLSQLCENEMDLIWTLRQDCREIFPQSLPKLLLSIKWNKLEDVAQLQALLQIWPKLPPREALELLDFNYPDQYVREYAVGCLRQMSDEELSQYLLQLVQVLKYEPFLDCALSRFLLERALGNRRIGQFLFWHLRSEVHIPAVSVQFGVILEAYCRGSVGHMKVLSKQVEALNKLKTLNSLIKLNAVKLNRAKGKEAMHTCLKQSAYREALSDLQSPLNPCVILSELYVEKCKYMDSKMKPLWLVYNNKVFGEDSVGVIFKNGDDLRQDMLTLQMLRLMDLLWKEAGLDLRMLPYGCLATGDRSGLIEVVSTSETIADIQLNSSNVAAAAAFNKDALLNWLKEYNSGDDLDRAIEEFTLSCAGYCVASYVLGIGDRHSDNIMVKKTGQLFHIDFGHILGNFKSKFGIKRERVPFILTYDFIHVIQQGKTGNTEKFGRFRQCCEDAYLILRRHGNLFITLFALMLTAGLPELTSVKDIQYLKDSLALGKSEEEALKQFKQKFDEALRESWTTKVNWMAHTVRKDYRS
T2 sequence (P27986 whole entry partner): as the sequence (P27986 whole entry partner) above
Excerpt: as §8

[23] = molecular target: T3, PI3K γ (Homo sapiens, UniProt P48736); experiment: PI3K lipid kinase inhibition assay (TLC or HTRF), PI3K γ; assay type: biochemical; conditions: In Vitro
T3 construct: purchased Sigma
T3 sequence (P48736 whole entry): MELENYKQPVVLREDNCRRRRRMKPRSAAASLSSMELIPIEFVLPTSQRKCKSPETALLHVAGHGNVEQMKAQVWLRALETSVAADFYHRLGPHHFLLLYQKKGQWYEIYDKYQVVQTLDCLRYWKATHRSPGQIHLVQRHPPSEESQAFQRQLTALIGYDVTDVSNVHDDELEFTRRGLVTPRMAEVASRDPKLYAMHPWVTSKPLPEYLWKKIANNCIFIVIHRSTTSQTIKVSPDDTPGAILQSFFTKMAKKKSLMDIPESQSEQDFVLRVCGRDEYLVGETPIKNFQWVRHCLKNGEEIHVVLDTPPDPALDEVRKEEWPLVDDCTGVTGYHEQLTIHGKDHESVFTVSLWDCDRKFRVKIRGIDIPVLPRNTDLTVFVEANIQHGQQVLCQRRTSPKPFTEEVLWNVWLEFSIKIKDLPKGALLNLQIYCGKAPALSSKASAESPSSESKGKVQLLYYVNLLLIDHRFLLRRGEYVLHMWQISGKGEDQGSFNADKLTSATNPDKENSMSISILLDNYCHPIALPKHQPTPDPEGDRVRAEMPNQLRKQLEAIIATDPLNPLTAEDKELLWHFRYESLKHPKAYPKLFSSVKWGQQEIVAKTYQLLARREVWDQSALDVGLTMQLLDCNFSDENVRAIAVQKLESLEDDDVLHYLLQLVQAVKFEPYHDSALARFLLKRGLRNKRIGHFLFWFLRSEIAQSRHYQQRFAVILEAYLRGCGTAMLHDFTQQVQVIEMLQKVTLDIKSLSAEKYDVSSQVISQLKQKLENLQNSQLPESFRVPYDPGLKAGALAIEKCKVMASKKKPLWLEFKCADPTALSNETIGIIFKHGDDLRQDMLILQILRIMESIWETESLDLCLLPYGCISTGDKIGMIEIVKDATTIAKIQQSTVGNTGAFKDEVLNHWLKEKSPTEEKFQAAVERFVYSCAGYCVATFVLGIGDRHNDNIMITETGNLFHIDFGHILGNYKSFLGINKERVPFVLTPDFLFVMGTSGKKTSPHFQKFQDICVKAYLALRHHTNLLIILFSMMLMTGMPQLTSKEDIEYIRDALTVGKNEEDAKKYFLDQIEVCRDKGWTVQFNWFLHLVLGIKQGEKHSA
Excerpt: as §8

[24] = molecular target: PI3K δ (Homo sapiens, UniProt O00329); experiment: PI3K lipid kinase inhibition assay (TLC or HTRF), PI3K δ; assay type: biochemical; parameters: purchased Upstate; conditions: In Vitro
PI3K δ, sequence (O00329 whole entry): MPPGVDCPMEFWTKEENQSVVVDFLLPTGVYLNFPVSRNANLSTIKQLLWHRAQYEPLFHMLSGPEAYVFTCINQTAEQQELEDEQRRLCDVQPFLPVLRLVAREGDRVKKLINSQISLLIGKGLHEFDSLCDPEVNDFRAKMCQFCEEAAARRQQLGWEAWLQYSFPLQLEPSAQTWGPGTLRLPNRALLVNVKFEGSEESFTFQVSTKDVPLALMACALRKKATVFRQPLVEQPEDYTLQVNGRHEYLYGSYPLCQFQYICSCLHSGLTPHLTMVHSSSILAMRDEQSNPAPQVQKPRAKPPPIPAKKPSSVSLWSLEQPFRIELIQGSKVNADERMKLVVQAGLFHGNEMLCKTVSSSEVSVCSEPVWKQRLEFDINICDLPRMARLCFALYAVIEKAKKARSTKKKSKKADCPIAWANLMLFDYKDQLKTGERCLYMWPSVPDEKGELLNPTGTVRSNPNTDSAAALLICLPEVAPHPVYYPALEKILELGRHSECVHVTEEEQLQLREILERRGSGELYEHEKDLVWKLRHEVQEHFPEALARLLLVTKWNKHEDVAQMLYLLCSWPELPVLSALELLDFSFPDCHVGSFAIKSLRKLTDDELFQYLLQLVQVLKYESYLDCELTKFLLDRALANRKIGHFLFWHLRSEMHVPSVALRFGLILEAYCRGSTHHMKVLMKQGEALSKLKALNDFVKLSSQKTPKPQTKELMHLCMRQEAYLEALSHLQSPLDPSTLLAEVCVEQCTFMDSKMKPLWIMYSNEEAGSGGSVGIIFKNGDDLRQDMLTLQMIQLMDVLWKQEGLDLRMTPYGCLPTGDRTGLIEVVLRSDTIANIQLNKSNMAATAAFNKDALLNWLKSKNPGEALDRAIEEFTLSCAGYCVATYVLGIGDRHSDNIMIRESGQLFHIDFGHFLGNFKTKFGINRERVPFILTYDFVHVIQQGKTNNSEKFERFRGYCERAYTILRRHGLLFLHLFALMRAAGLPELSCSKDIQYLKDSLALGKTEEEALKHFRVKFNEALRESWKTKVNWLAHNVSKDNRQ
PI3K δ, sequence (P27986 whole entry partner): as the sequence (P27986 whole entry partner) above
Excerpt: as §8

[25] = system: MJ; experiment: CTCL cytotoxicity, 72 hours; assay type: cell-based; conditions: MJ cells
Protocol: MJ and HuT78 cells were grown in IMDM 20% FBS, and HH cells were grown in RPMI 10% FBS.

[26] = system: Loucy; experiment: T-ALL growth inhibition; assay type: cell-based, human; conditions: Loucy ALL cells, various concentrations
Protocol: To further explore the individual contributions of the varying PI3K isoforms on T-ALL cell growth, Loucy ALL cells were treated with doxorubicin and various PI3K inhibitors as shown in FIG. 32 at various concentrations as denoted in the figure.

SMILES: C=CC(=O)Nc1cccc(Nc2nc(Nc3ccc(OCCOC)cc3)ncc2F)c1 [AVL-292, N-(3-((5-fluoro-2-((4-(2-methoxyethoxy)phenyl)amino)pyrimidin-4-yl)amino)phenyl)acrylamide]
CI50 (growth inhibition) [1]: S (S=0.01 to <0.5)
CI50 (inhibition) [1]: S (S=0.01 to <0.5)
Synergy Score (growth inhibition) [1]: A3 (A3=>3)
Synergy Score (inhibition) [1]: A2 (A2=1 to <3)
CI50 (growth inhibition) [2]: S (S=0.01 to <0.5)
CI50 (inhibition) [2]: S (S=0.01 to <0.5)
Synergy Score (growth inhibition) [2]: A3 (A3=>3)
Synergy Score (inhibition) [2]: A2 (A2=1 to <3)
CI50 (growth inhibition) [3]: T (T=0.5 to <0.7)
CI50 (inhibition) [3]: U (U=0.7 to <1)
Synergy Score (growth inhibition) [3]: A2 (A2=1 to <3)
Synergy Score (inhibition) [3]: A2 (A2=1 to <3)
CI50 (growth inhibition) [4]: S (S=0.01 to <0.5)
CI50 (inhibition) [4]: S (S=0.01 to <0.5)
Synergy Score (growth inhibition) [4]: A3 (A3=>3)
Synergy Score (inhibition) [4]: A2 (A2=1 to <3)
CI50 (growth inhibition) [5]: U (U=0.7 to <1)
Synergy Score (growth inhibition) [5]: A1 (A1=0.0001 to <1)
Synergy Score (inhibition) [5]: A1 (A1=0.0001 to <1)
CI50 (growth inhibition) [6]: U (U=0.7 to <1)
CI50 (inhibition) [6]: U (U=0.7 to <1)
Synergy Score (growth inhibition) [6]: A1 (A1=0.0001 to <1)
Synergy Score (inhibition) [6]: A1 (A1=0.0001 to <1)
CI50 (growth inhibition) [7]: T (T=0.5 to <0.7)
CI50 (inhibition) [7]: T (T=0.5 to <0.7)
Synergy Score (growth inhibition) [7]: A3 (A3=>3)
Synergy Score (inhibition) [7]: A2 (A2=1 to <3)
CI50 (growth inhibition) [8]: U (U=0.7 to <1)
Synergy Score (growth inhibition) [8]: A1 (A1=0.0001 to <1)
Synergy Score (inhibition) [8]: A1 (A1=0.0001 to <1)
CI50 (growth inhibition) [9]: T (T=0.5 to <0.7)
CI50 (inhibition) [9]: S (S=0.01 to <0.5)
Synergy Score (growth inhibition) [9]: A2 (A2=1 to <3)
Synergy Score (inhibition) [9]: A2 (A2=1 to <3)
CI50 (growth inhibition) [10]: T (T=0.5 to <0.7)
CI50 (inhibition) [10]: S (S=0.01 to <0.5)
Synergy Score (growth inhibition) [10]: A3 (A3=>3)
Synergy Score (inhibition) [10]: A2 (A2=1 to <3)
CI50 (growth inhibition) [11]: T (T=0.5 to <0.7)
CI50 (inhibition) [11]: W (W=≧1)
Synergy Score (growth inhibition) [11]: A2 (A2=1 to <3)
Synergy Score (inhibition) [11]: A1 (A1=0.0001 to <1)
CI50 (growth inhibition) [12]: T (T=0.5 to <0.7)
CI50 (inhibition) [12]: T (T=0.5 to <0.7)
Synergy Score (growth inhibition) [12]: A3 (A3=>3)
Synergy Score (inhibition) [12]: A2 (A2=1 to <3)
CI50 (growth inhibition) [13]: T (T=0.5 to <0.7)
CI50 (inhibition) [13]: U (U=0.7 to <1)
Synergy Score (growth inhibition) [13]: A2 (A2=1 to <3)
Synergy Score (inhibition) [13]: A1 (A1=0.0001 to <1)
CI50 (growth inhibition) [14]: U (U=0.7 to <1)
CI50 (inhibition) [14]: T (T=0.5 to <0.7)
Synergy Score (growth inhibition) [14]: A2 (A2=1 to <3)
Synergy Score (inhibition) [14]: A1 (A1=0.0001 to <1)
CI50 (growth inhibition) [15]: W (W=≧1)
Synergy Score (growth inhibition) [15]: A1 (A1=0.0001 to <1)
Synergy Score (inhibition) [15]: A1 (A1=0.0001 to <1)
CI50 (growth inhibition) [16]: T (T=0.5 to <0.7)
CI50 (inhibition) [16]: W (W=≧1)
Synergy Score (growth inhibition) [16]: A2 (A2=1 to <3)
Synergy Score (inhibition) [16]: A1 (A1=0.0001 to <1)
CI50 (growth inhibition) [17]: W (W=≧1)
Synergy Score (growth inhibition) [17]: A1 (A1=0.0001 to <1)
Synergy Score (inhibition) [17]: A1 (A1=0.0001 to <1)
CI50 (growth inhibition) [18]: U (U=0.7 to <1)
CI50 (inhibition) [18]: U (U=0.7 to <1)
Synergy Score (growth inhibition) [18]: A2 (A2=1 to <3)
Synergy Score (inhibition) [18]: A1 (A1=0.0001 to <1)
CI50 (growth inhibition) [19]: U (U=0.7 to <1)
CI50 (inhibition) [19]: W (W=≧1)
Synergy Score (growth inhibition) [19]: A1 (A1=0.0001 to <1)
Synergy Score (inhibition) [19]: A1 (A1=0.0001 to <1)
Synergy Score (growth inhibition) [20]: A1 (A1=0.0001 to <1)
Synergy Score (inhibition) [20]: A1 (A1=0.0001 to <1)

SMILES: CC(=O)Nc1nc2ccc(-c3nn(Cc4cc5cccc(C)c5c(=O)n4-c4ccccc4C)c4ncnc(N)c34)cc2s1 [Compound 168]
IC50 [21]: < 10000 nM

IC50 [21]: < 10000 nM
IC50 [22]: < 10000 nM
IC50 [23]: < 100 nM
SMILES: Cc1cccc2cc(Cn3nc(-c4ccc5nc(N)oc5c4)c4c(N)ncnc43)n(-c3ccccc3)c(=O)c12 [Compound 235]

IC50 [21]: > 10000 nM
IC50 [22]: > 10000 nM
IC50 [24]: > 10000 nM
IC50 [23]: > 10000 nM
SMILES: Cc1cccc2cc(C(C)Nc3nc(Cl)ncc3N)n(-c3ccccc3)c(=O)c12 (stereo not drawn) [Compound 322]

SMILES: CC[C@H](Nc1ncnc2[nH]cnc12)c1nc2cccc(F)c2c(=O)n1-c1ccccc1 [GS-1101, (S)-2-(1-(9H-purin-6-ylamino)propyl)-5-fluoro-3-phenylquinazolin-4(3H)-one, reference compound]
cytotoxicity, sensitivity [25]: resistant

SMILES: COc1cccc2c1C(=O)c1c(O)c3c(c(O)c1C2=O)C[C@@](O)(C(=O)CO)C[C@@H]3O[C@H]1C[C@H](N)[C@H](O)[C@H](C)O1 [doxorubicin, reference compound]
percent inhibition of Loucy cells with dose [26]: different pattern
